{"source": "paper PMC7658068", "about": "“Effects of a novel variant of the yeast γ-glutamyl kinase Pro1 on its enzymatic activity and sake brewing” (Journal of Industrial Microbiology & Biotechnology, 2020)", "key": {"[1]": {"target": "T1, γ-glutamyl kinase Pro1 (GK) (Saccharomyces cerevisiae, UniProt P32264)", "T1 sequence (P32264 1-428)": "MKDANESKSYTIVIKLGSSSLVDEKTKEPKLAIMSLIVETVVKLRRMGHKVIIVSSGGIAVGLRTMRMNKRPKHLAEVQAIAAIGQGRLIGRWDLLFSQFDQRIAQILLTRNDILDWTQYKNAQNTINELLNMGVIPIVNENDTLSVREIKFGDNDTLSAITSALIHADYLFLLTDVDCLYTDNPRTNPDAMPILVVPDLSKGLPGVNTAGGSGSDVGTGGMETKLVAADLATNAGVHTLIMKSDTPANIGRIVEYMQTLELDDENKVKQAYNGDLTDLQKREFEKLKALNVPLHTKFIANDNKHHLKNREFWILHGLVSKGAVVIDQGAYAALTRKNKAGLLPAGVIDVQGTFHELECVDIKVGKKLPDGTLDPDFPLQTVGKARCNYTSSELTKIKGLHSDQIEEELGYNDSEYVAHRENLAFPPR", "conditions": "400 mM sodium glutamate, 5 mM ATP, 10 mM MgCl2, 100 mM HEPES-NaOH pH 7.4, 30 °C; allosteric feedback inhibition"}, "[2]": {"target": "γ-glutamyl kinase Pro1 (GK) (Saccharomyces cerevisiae, UniProt P32264, I150T)", "sequence (P32264 whole entry I150T)": "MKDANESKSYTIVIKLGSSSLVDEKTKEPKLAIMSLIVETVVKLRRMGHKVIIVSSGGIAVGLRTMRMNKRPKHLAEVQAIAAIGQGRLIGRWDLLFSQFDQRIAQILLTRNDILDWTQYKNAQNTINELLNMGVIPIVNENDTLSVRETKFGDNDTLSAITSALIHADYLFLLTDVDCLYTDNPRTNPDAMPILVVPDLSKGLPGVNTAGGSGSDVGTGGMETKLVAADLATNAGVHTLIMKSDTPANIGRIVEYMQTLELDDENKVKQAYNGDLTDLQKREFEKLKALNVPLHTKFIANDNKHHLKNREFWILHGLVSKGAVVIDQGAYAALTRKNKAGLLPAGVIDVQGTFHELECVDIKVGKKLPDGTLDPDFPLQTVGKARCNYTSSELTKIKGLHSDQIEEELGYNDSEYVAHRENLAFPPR", "test": "biochemical", "conditions": "read-out: relative activity at 100 mM proline"}, "[3]": {"target": "γ-glutamyl kinase Pro1 (GK) (Saccharomyces cerevisiae, UniProt P32264, Q79H)", "sequence (P32264 whole entry Q79H)": "as the sequence (P32264 whole entry I150T) above, with Q79H, T150I counted along it", "test": "biochemical", "conditions": "read-out: relative activity at 100 mM proline"}, "[4]": {"target": "T1, γ-glutamyl kinase Pro1 (GK)", "test": "PK/LDH-coupled ADP assay, NADH at […] nm", "type": "biochemical", "design": "full-length ORF in pET15b (NdeI/XhoI), His-tag, E. coli BL21(DE3), Ni Sepharose; tag removal not mentioned", "conditions": "400 mM sodium glutamate, 5 mM ATP, 10 mM MgCl2, 100 mM HEPES-NaOH pH 7.4, 30 °C; no proline"}}, "data": [{"smiles": "O=C(O)[C@@H]1CCCN1", "note": "[proline]", "values": [{"measurement": "relative activity with 0-5 mM proline", "setting": "[1]", "value": "in the presence of proline, the GK activity of WT was markedly inhibited"}, {"measurement": "activity at 100000 µM", "setting": "[2]", "value": 59, "unit": "%"}, {"measurement": "activity at 100000 µM", "setting": "[3]", "value": 96, "unit": "%"}]}, {"smiles": "Nc1ncnc2c1ncn2[C@@H]1O[C@H](COP(=O)(O)OP(=O)(O)OP(=O)(O)O)[C@@H](O)[C@H]1O", "note": "[ATP]", "values": [{"measurement": "PK/LDH-coupled ADP assay, NADH at 340 nm", "setting": "[4]", "value": "GK activity was measured by the production of ADP in an enzyme-coupled system"}]}, {"smiles": "N[C@@H](CCC(=O)O)C(=O)O", "note": "[glutamate]", "values": [{"measurement": "PK/LDH-coupled ADP assay, NADH at 340 nm", "setting": "[4]", "value": "the reaction was initiated by the addition of sodium glutamate"}]}]}
